US11911397B2, “Anordrin compositions and methods for treating diseases” (Zhejiang Jiachi Development Pharmaceuticals LTD, priority 2014, dated 2024)

How the values were obtained:
[1] = system: 8S and 4S estrogen-binding complexes in uterine cytosol; conditions: cited from earlier work
[2] = system: ovariectomized (OVX) mice; assay: ovariectomized (OVX) mice model; type: in vivo; conditions: for fat deposits in paraffin sections of liver / body mass / total cholesterol (TC) in liver / triglyceride (TG) in liver: OVX mice; for body mass: after 6 weeks, intragastric; for total cholesterol (TC) in liver / triglyceride (TG) in liver: compared to controls
normal mice = normal mice treated with tamoxifen, anordrin or both
[3] = system: endometrial epithelial cells; assay: endometrial epithelial cells in mice (histology); conditions: for endometrial epithelial cell proliferation: monolayer vs polylayer
Source text: Preparation of paraffin sections and HE staining: The tissue of mice was excised by surgery and fixed using 2.5% formaldehyde in 1×PBS.

[4] = system: patients whose cancers were potentially caused by EGF/Her1; conditions: patients who failed to be inhibited by an EGF competitor; cited from earlier work
MDA-MB-231 cells [5] = assay: MDA-MB-231 cell growth, cell counting; type: cell-based; conditions: 6 μM anordrin
ER-β = molecular target: T1, ER-β (Homo sapiens, UniProt Q92731); assay: 3H-E2 binding to ER-β fusion protein expressed in HEK-293 cells; conditions: 100 nM anordrin, 1 nM 3H-E2, HEK-293 lysate
T1 construct: expressed in transfected cells; host or cells: HEK-293
T1 sequence (Q92731 whole entry, species assumed, the tested form may be a part): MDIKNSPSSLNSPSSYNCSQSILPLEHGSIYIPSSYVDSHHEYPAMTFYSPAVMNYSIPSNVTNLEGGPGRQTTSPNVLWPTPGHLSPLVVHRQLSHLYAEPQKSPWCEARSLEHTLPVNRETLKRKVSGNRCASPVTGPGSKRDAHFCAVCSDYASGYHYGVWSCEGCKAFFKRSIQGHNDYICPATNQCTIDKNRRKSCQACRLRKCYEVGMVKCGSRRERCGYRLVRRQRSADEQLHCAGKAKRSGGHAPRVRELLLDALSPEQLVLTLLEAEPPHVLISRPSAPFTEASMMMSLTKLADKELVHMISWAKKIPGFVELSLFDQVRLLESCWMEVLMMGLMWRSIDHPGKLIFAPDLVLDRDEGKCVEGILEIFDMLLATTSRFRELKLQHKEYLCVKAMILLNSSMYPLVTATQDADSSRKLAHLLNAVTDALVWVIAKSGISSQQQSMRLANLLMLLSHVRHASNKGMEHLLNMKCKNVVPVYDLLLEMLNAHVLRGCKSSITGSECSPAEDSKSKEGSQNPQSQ
Experimental: (§1) Binding and competition assays: GST and GST-ER-α fusion proteins were expressed in E. coli and purified using glutathione beads. 2 μg/ml GST (40-80 nM) fusion proteins in 1 ml TE buffer was mixed with 1 nM ^3H-E2 at 4° C. for 2 h. Radioactivity on beads was measured using a GM meter. HEK-293 cells were transfected to express GST fusion proteins of ER-β or GPER1. Cells were lysed in 1×TE buffer containing protease inhibitor cocktail (sigma) on ice for 30 min, 80% glycerol was added to reach 20% glycerol. Tubes were centrifuged at 300 g for 5 min and supernatant was collected. Protein concentration was measured by Bio-rad protein concentration assay kit. 100 nM anordrin and 1 nM^3H-E2 was added to 1 ml lysate (5 mg/ml total protein) at 4° C. for 2 h. Radioactivity on beads was measured using GM meter.

MCF-7 cells [6] = assay: MCF-7 cell growth, cell counting; type: cell-based
Experimental: To test this hypothesis we induced MCF-7 cells in IL-free medium for two months. Drug sensitivity of cell growth was tested by counting the cell number after 144 h of inoculation (FIG. 13A).

[7] = molecular target: T2, ER-α ligand binding domain (GST-ER-α-LBD) (Homo sapiens, UniProt P03372); assay: 3H-E2 competition assay on GST-ER-α-LBD beads; conditions: for blocking of [H^3-E2] binding to GST-ER-α-LBD on beads: 50 nM, 0.5 nM [H^3-E2], 1 μg GST-ER-α-LBD
T2 construct: made in house; host or cells: E. coli
T2 sequence (P03372 311-547 limits assumed): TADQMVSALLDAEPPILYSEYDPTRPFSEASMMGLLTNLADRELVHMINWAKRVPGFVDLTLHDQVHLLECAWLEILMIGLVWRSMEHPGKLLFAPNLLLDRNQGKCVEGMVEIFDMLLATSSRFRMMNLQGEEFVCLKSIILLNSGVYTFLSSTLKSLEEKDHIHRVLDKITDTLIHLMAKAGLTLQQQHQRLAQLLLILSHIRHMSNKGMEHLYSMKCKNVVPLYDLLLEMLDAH

[8] = system: ERK phosphorylation in HepG2 cells; assay: phosphorylation of ERK in HepG2 cells; type: cell-based; conditions: non-monotonic dose response
db/db mice = assay: blood glucose in db/db mice; type: in vivo
Hec1A cells = assay: Hec1A cell proliferation; type: cell-based
[9] = system: BRCA1, ApoD, COX7a mRNA in MCF-7 cells; assay: RT-qPCR of genes regulated by the estrogen classic pathway in MCF-7 cells; type: cell-based; conditions: for expression of ApoD: FIG. 13B
GPER1 = molecular target: T3, GPER1 (Homo sapiens, UniProt Q99527); assay: 3H-E2 binding to GPER1 fusion protein expressed in HEK-293 cells; conditions: 100 nM anordrin, 1 nM 3H-E2, HEK-293 lysate
T3 construct: expressed in transfected cells; host or cells: HEK-293
T3 sequence (Q99527 whole entry, species assumed, the tested form may be a part): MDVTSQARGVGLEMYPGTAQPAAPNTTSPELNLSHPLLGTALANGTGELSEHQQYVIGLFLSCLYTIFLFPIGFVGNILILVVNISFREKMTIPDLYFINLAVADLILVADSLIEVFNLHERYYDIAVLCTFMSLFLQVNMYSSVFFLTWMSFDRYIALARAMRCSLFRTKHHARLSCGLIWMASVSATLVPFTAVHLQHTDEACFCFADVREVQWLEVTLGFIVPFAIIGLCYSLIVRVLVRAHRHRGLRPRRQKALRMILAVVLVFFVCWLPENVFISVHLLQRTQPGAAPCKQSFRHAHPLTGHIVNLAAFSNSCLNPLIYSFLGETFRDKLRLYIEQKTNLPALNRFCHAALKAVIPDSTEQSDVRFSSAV
Experimental: as §1

[10] = system: integrin β1 in MCF-7 cells; assay: integrin β1 cell surface distribution and expression in MCF-7 cells; type: cell-based; conditions: 6 μM
Experimental: (§2) MCF-7 cells were harvested and lysed in RIPA buffer. 40 μg total protein of cellular lysate was used for Western blotting to determinate the expression level of integrin β1.
(§3) Integrin translocation to the cell surface is regulated by the p130Cas scaffold protein complex to play a fundamental role in cell attachment and migration. Integrin α3β1 has been reported to be involved in MCF-7 cell attachment as well as MDA-MB-231 cell migration (25, 26). […] To verify the hypothesis, we treated MCF-7 and MDA-MB-231 cells with 6 μM anordrin for 16 hours and measured cell surface integrin β1 distribution using a FITC-labeled anti-integrin β1 antibody. […] Taken together, we conclude that anordrin or analog thereof (such as […]) binds to membrane-associated ER to inhibit cell migration and proliferation.
(§4) Transwell and flow cytometry assay: Cells were starved for 48 hours in phenol red free medium containing 5% charcoal-stripped FBS, and then changed into phenol red free medium for an additional 24 hours. Transwell was performed following the Chemicon kit instructions (CAT #ECM551). Briefly, cells were trypsinized, washed using 1×DPBS containing Ca2+ and Mg2+ (Sigma) and resuspensed in serum and phenol red free medium at a cell density of 0.5×10^6 cells/ml. […]

Ishikawa cells = assay: Ishikawa cell proliferation; type: cell-based
T47D cells = assay: EGF-induced T47D cell growth; type: cell-based; conditions: 7.5 μM, 10 ng/ml EGF
MCF-7 cells [11] = assay: 2-NBDG glucose uptake and cellular ATP in MCF-7 cells; type: cell-based
Experimental: Glucose uptake was measured using fluorescently labeled glucose (2-NBDG), and ATP concentrations were measured using an ATP analysis kit.

[12] = system: integrin β1 in MDA-MB-231 cells; assay: integrin β1 cell surface distribution and expression in MDA-MB-231 cells; type: cell-based; conditions: 6 μM
Experimental: as §2, §3, §4

HepG2 cells = assay: HepG2 cell growth; type: cell-based
MCF-7 cells [13] = assay: glucose consumption and medium pH of MCF-7 cells; type: cell-based; conditions: for glucose concentration of media / glucose consumption: 60 hours
[14] = system: Bcl-2 expression in MCF-7 cells; assay: Bcl-2 expression in MCF-7 cells (western blotting, RT-qPCR); type: cell-based; conditions: for increase of Bcl-2 mRNA transcription: 6 μM dinordrin, RT-qPCR
ER-α-36 = molecular target: T4, ER-α-36 (Homo sapiens, UniProt P03372); assay: 3H-E2 binding to ER-α-36 expressed in HEK-293 cells; conditions: blocking at low, facilitating at higher concentrations
T4 construct: expressed in transfected cells; host or cells: HEK-293
T4 sequence (P03372 1-310 isoform P03372-4): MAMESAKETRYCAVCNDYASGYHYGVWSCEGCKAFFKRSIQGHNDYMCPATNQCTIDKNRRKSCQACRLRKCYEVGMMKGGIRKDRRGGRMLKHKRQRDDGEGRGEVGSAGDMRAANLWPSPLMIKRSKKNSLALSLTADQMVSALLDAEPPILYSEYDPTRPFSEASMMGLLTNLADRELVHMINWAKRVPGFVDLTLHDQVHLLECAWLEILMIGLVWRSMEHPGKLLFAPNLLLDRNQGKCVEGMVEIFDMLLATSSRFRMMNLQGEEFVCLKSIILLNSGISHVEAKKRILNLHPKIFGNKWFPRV
Source text: MIESs effect their regulation of cell proliferation, migration, cell-cell junction and matrix, and energy metabolism through a series of scaffold protein complexes. ER-α association with the plasma membrane is facilitated by palmitoylation at residue C447 in the LBD. […] To verify this, we measured the binding affinity of 3H-E2 with GST-ER-α-36 expressed and purified from E. coli. […] In contrast, 3H-E2 does bind to GST-ER-α-46, which has a full length ER-α-LBD.
Isolation of microsome and Drug competition assay: Cells were harvested and lysed in TE buffer (50 mM Tris (pH8.0), 5 mM EDTA, 2 mM PMSF and protease inhibitor cocktail (Sigma)) for 30 min with vortexing every 5 min. 80% glycerol in TE buffer was added to cell lysates to reach 20% and centrifuged at 800 g for 5 min. The supernatant was transferred to new tubes and total protein concentration was adjusted to 5 mg/ml. Drugs and ^3H-E2 were added to 1 ml protein solution and incubated at 4° C. for 2 hours. Microsome was precipitated at 25 krpm for 2 hours. Bound ^3H-E2 was measured using GM meter.

MDA-MB-231 cells [15] = assay: MDA-MB-231 cell migration (matrixgel / transwell); type: cell-based; conditions: 6 μM anordrin
Experimental: As anordrin has been reported as an anti-angiogenic agent resulting in inhibition of cell migration and invasion (16), we studied its ability to modulate MDA-MB-231 cell migration using matrixgel. […] After 20 hours migrated cells were stained and quantified using a plate reader at 560 nm.

[16] = anordrin 0.45 μg/g in combination with tamoxifen 4.5 μg/g per day
[17] = charcoal-stripped FBS in phenol red free DMEM
[18] = tamoxifen 4.5 μg/g body mass per day, 9 weeks

SMILES: C#C[C@@]1(O)C[C@@H]2CC[C@@H]3[C@H](CC[C@@]4(C)[C@H]3CC[C@@]4(O)C#C)[C@@]2(C)C1 [Anordiol, 2β,7α-diethyl-A-nor-5α-androstane-2α,17β-diol]
- binding to estrogen-binding complexes 4S and 8S [1]: preferentially bind the 8S complex

SMILES: C[C@]12CC[C@@H]3c4ccc(O)cc4CC[C@H]3[C@@H]1CC[C@@H]2O [E2, 17-beta estradiol]
- fat deposits in paraffin sections of liver [2]: smaller fat deposits
- body mass [2]: remained unchanged
- total cholesterol (TC) in liver [2]: decreased amounts
- triglyceride (TG) in liver [2]: decreased amounts

SMILES: C#C[C@@]1(OC(=O)CC)C[C@@H]2CC[C@@H]3[C@H](CC[C@@]4(C)[C@H]3CC[C@]4(C#C)OC(=O)CC)[C@@]2(C)C1 [anordrin, 2α,17α-diethynyl-A-nor-5α-androstane-2β,17β-diol dipropionate]
- tamoxifen-induced NASH syndrome phenotype (normal mice; [16]): completely reversed
- tamoxifen-induced body weight phenotype (normal mice; [16]): completely reversed
- tamoxifen-induced liver TG phenotype (normal mice; [16]): completely reversed
- increased serum TG levels induced by tamoxifen (normal mice; mice): reverse
- increased serum viscosity induced by tamoxifen (normal mice; mice): reverse
- tamoxifen-induced uterine and vaginal atrophy (normal mice; tamoxifen treated mice): decrease the extent
- hypertrophy of endometrial epithelial cells [3]: causes hypertrophy
- endometrial epithelial cell proliferation [3]: does not induce
- quality of life and lifespan of patients [4]: improve the quality of life and increase the lifespan
- MDA-MB-231 cell growth (MDA-MB-231 cells [5]): inhibits MDA-MB-231 cell growth significantly
- 3H-E2 binding to ER-β fusion protein (ER-β): inhibits
- effect on the ability of tamoxifen to inhibit MCF-7 cell growth (MCF-7 cells [6]; 200 nM anordrin in the culture medium): did not affect
- inhibition at 7.5 µM (MCF-7 cells [6]; Homo sapiens, MCF7, 7.5 μM): > 50%
- inhibition of 3H-E2 binding to GST-ER-α-LBD ([7]; 50 nM compound, 0.5 nM 3H-E2, 2 μg GST-ER-α-LBD): could not inhibit
- blocking of [H^3-E2] binding to GST-ER-α-LBD on beads [7]: no inhibition
- concentration of maximal phosphorylation of ERK [8]: 10 µM
- whole blood glucose / glucose consumption (db/db mice; female db/db mice, 0.45 μg/g body mass daily, 4 weeks): improved glucose consumption
- glucose consumption (db/db mice; male db/db mice, data not shown): no affect
- doses inhibiting proliferation (Hec1A cells): 2 to 8 µM
- mRNA level of BRCA1 [9]: did not significantly affect
- 3H-E2 binding to GPER1 fusion protein (GPER1): inhibits
- expression level of integrin β1 [10]: did not affect
- integrin β1 distribution to the plasma membrane ([10]; 16 hours): down-regulated
- doses inhibiting proliferation (Ishikawa cells): 2 to 8 µM
- fat deposits in paraffin sections of liver [2]: smaller fat deposits
- body mass [2]: remained unchanged
- total cholesterol (TC) in liver [2]: decreased amounts
- triglyceride (TG) in liver [2]: decreased amounts
- bone marrow cells ([2]; ovariectomized mice): prevent decrease
- serum Ca^2+ ([2]; ovariectomized mice): increased
- serum Pi ([2]; ovariectomized mice): decreased
- uterine atrophy ([2]; ovariectomized mice): prevent uterine atrophy
- bone density ([2]; ovariectomized mice, micro-CT): increased
- EGF-induced cell growth (T47D cells): blocked the increase in cell growth
- 2-NBDG uptake (MCF-7 cells [11]): enhanced
- cellular ATP concentrations (MCF-7 cells [11]): enhanced
- expression level of integrin β1 [12]: did not affect
- integrin β1 distribution to the plasma membrane ([12]; 16 hours): down-regulated
- concentration showing the greatest degree of inhibition of cell growth (HepG2 cells): around 7 μM
- shape of dose response of cell growth inhibition (HepG2 cells): biphasic dose response
- effect on tamoxifen inhibition of glucose metabolism (MCF-7 cells [13]; 200 nM anordrin with 1 μM tamoxifen, MCF-7, 60 hours): reversed the inhibitory effect
- pH of culture medium (MCF-7 cells [13]; MCF-7 cells): decreased pH
- glucose concentration of media / glucose consumption (MCF-7 cells [13]; MCF-7 cells): lower
- increase of Bcl-2 mRNA transcription [14]: 3.18%±3.22%
- Bcl-2 mRNA expression ([14]; 7.5 μM, data not shown): not affected
- Bcl-2 protein expression ([14]; 7.5 μM, western blotting): not affected
- Bcl-2 protein expression [14, 17]: Neither tamoxifen nor anordrin or analog thereof (such as anordrin) were found to affect Bcl-2 protein expression
- effect on 3H-E2 binding to ER-α-36 (ER-α-36): biphasic effect
- MDA-MB-231 cell migration in medium containing E2 (MDA-MB-231 cells [15]; 10 nM E2): significantly inhibited
- MDA-MB-231 cell migration in medium containing EGF (MDA-MB-231 cells [15]; 10 ng/ml EGF): significantly inhibited

SMILES: C#C[C@@]1(OC(=O)CC)C[C@@H]2CC[C@@H]3[C@H](CC[C@@]4(C)[C@H]3CC[C@]4(C#C)OC(=O)CC)[C@H]2C1 [dinordrin]
- blocking of [H^3-E2] binding to GST-ER-α-LBD on beads [7]: 63.2±5.7%
- increase of Bcl-2 mRNA transcription [14]: 147.2%±22.73%

SMILES: CC(C)Oc1ccc2c(=O)c(-c3ccccc3)coc2c1 [ipriflavone]
- body mass [2]: increased
- total cholesterol (TC) in liver [2]: no change
- triglyceride (TG) in liver [2]: no change

SMILES: O=C(c1ccc(OCCN2CCCCC2)cc1)c1c(-c2ccc(O)cc2)sc2cc(O)ccc12 [raloxifene]
- expression of ApoD [9]: enhance expression of ApoD

SMILES: CC/C(=C(\c1ccccc1)c1ccc(OCCN(C)C)cc1)c1ccccc1 [tamoxifen]
- indicators of NASH syndrome (normal mice; [18]): increased indicators of NASH syndrome
- liver TG levels (normal mice; [18]): increased
- body mass (normal mice; tamoxifen 4.5 μg/g body mass per day, 9 weeks, normal mice): increase in body mass
- endometrial epithelial cell proliferation [3]: induce proliferation
- MDA-MB-231 cell growth (MDA-MB-231 cells [5]): no effect
- mRNA level of BRCA1 [9]: significantly inhibited
- transcription of COX7a mRNA [9]: significantly inhibited
- expression of ApoD [9]: enhance expression of ApoD
- binding to estrogen-binding complexes 4S and 8S [1]: bind both estrogen-binding complexes
- glucose concentration of media / glucose consumption (MCF-7 cells [13]; MCF-7 cells): inhibition
- Bcl-2 protein expression ([14]; 7.5 μM, western blotting): inhibit Bcl-2 expression
- Bcl-2 protein expression [14, 17]: Neither tamoxifen nor anordrin or analog thereof (such as anordrin) were found to affect Bcl-2 protein expression
